This test deals with T1, CHK1 (Cricetulus griseus, UniProt G3I7I8).
T1 construct: gene Chek1
T1 sequence (G3I7I8 1-476): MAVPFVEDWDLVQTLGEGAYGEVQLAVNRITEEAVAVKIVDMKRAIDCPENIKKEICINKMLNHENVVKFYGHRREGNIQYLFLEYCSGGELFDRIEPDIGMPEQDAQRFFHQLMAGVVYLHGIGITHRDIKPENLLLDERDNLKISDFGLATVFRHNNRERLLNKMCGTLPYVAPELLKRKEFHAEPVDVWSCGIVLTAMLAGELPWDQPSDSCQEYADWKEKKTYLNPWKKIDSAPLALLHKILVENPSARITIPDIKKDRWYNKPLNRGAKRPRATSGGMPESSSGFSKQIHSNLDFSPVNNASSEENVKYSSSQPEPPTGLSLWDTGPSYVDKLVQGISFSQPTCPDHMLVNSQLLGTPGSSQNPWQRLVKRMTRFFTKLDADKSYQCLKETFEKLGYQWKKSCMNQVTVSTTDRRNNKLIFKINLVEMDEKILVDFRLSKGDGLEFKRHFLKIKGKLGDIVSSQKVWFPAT
Briefly: Western blot of CHK1 S296 autophosphorylation in rucaparib-treated V-C8 and V-C8.B2 cells. Particulars: read-out: % inhibition at 50 nM. It counts as cell-based.

In the case of `Cn1cc(-c2[nH]c3cc(NC(=O)[C@H](N)C4CCCCC4)cc4c3c2C=NNC4=O)cn1` [PF-477736], the inhibition at 0.05 µM amounted to 91.4%.
